Where “and” joins values, the source holds several entries; their conditions need not be identical. Equal values may be shown once. Entries after “also recorded” stand apart in the source; their conditions may differ. Read-outs that look alike come from different tables or passages of the source. Marks after values point to notes of the source that are not given here.
Assays:
[1] = test system: VEGFA-induced aversion to mechanical stimuli in rats; assay: Conditioned place aversion (CPA) to 10 g vF stimulation after VEGFA; format: in vivo, rat
Description: The procedure was performed as reported previously. Briefly, rats were gently restrained in a fabric cloth and given an intraplantar injection in the hind-paw containing VEGFA165 (10 nM) and compound (EG00229 or 12h, at 30 or 10 μM) alone or in combination in 50 μL of PBS vehicle (NaCl 137 mM, KCl 2.5 mM, Na2HPO4 10 mM, and KH2PO4 1.8 mM), using a 31G needle.
The experiments were conducted in a two-chamber device based on the protocols from and as previously described. The protocol includes 4 × 10 min of sequential tests of preconditioning (10 min), conditioning (2 × 10 min) and testing (10 min). During preconditioning, the animal is allowed free access to two connected chambers (30 × 30 × 19 cm), each associated with a scented lip-balm applied to the walls. Immediately following preconditioning, a divider was applied between the chambers, and the rats were conditioned to either stimuli or no-stimuli for 10 min in each chamber. The stimuli consisted of repeated stimulation with a 10 g VF-filament every 30 s for the 10 min that the subject was contained in that chamber, while no stimuli (NS) was applied in the other chamber. The order and side of conditioning was alternated between subjects. Following the conditioning, the divider was removed, and the rat was allowed free access to both chambers for the 10 min test. Animal movements in each chamber were recorded by a camera above, and the duration of time spent in each chamber was recorded during preconditioning and test phase. Decreased time spent in a chamber during the test versus preconditioning indicated avoidance for that chamber and was calculated as a CPA-score: time in VF-chamber during preconditioning – time in VF-chamber during test.

[2] = test system: vascular permeability of perfused mouse retina blood vessels; assay: Ex vivo retina permeability assay (sulforhodamine B extravasation); format: cell-based
Excerpt: C57Bl/6J mice were culled through CO2 overdose before proceeding with the cannulation of the common carotid arteries and perfusion of the vasculature, as previously described. Each eye was subsequently removed and enucleated. The retina was isolated with the attached sclera, flattened onto a silicone base (SYLGARD 184, Merck), and held in position by a metal ring and pins. Retinal explants were visualized with an Olympus 10× objective on an upright Axiophot fluorescence microscope (Zeiss) and continuously superfused with Krebs solution (124 mM NaCl, 5 mM KCl, 2 mM MgSO4, 22 mM […], 0.125 mM NaH2PO4 and 2 mM CaCl2, pH 7.4) supplemented with 5 mM glucose and 0.1% BSA w/v. A radial vein was injected with 1 mg/mL sulforhodamine B (479 Da; Merck) in Krebs solution using a glass needle to visualize the vasculature under a TRITC filter with an Olympus 40× water immersion objective. For permeability measurements, the fluorescence of a selected microvessel was recorded continuously by time-lapse imaging with a CCD camera (Hamamatsu) and HCImageLive software (Hamamatsu) for at least 30 s to obtain a baseline. VEGFA164 or EG00229 in Krebs solution were then added dropwise onto the retina. […] Time-lapse series were analyzed using ImageJ (NIH Bethesda). […] Permeability measurements from at least three different ex vivo retinal preparations were combined and expressed as mean ± SD. […]

[3] = test system: P-p38 in human brain endothelial cell line hCMEC/D3; assay: p38 phosphorylation in hCMEC/D3 cells (immunoblotting); format: cell-based
Description: Cell lysates of the human brain endothelial cell line hCMEC/D3 were prepared in RIPA buffer containing 0.1% SDS, protease inhibitor cocktail 2 and phosphatase inhibitor cocktail (Sigma-Aldrich). Proteins were separated by SDS-PAGE and transferred to nitrocellulose by wet electrotransfer. Membranes were blocked with 5% milk in Tris-buffered saline (TBS) overnight at 4 °C and then incubated with the appropriate primary antibody diluted in TBS containing 0.1% Tween-20 and 1% BSA for 2 h and 30 min at rt; the primary antibodies used were specific for phospho P-p38, p38 (1:1000; Cell Signaling Technology) and GADPH (1:10000; Merck). Membranes were washed with 0.1% Tween-20 in TBS and then incubated with goat antimouse or goat antirabbit horseradish peroxidase (HRP)-conjugated IgG (GE Healthcare) diluted 1:10,000 or 1:5000, respectively, with 0.1% Tween-20, 1% BSA in PBS. Membranes were developed using the ECL reagents (Roche) and images were acquired with the Bio-Rad ChemiDoc MP Imaging System and the Bio-Rad Image Lab software (version 6.0.1). Protein bands were quantified using ImageJ software version 1.52a (NIH Bethesda), whereby signal intensity was normalized to signal intensity from GADPH from the same sample as a loading control. Phosphorylation levels were normalized against the total levels of p38. Densitometric quantification of three independent immunoblots was determined by changes in protein or phosphoprotein content normalized to GADPH total protein loading controls, with values expressed as fold increase. Data are shown as mean ± SD. Statistical analysis included one-way ANOVA with significance levels set at 0.05, followed by posthoc Dunnett’s tests.

[4] = test system: total Na+ currents in rat DRG neurons; assay: Whole-cell patch-clamp of Na+ currents in dissociated DRG neurons; format: cell-based; settings: for V 1/2 activation, total Na+ / V 1/2 inactivation, total Na+: mean ± SEM (n cells)
Description: Recordings were obtained from acutely dissociated DRG neurons obtained from female rats as described earlier. Patch-clamp recordings were performed at room temperature (22–24 °C). Currents were recorded using an EPC 10 Amplifier-HEKA (HEKA Elektronik, Ludwigshafen, Germany) linked to a computer with Patchmaster software.
To determine the effect of VEGFA application on voltage-gated sodium currents, we incubated DRG neurons for 30 min with recombinant rat VEGFA, 1 nM (Cat#P4853, Abnova, Taipei, Taiwan) before whole-cell patch-clamp recordings. […] For the control condition, DRG neurons were incubated for 30 min with DMSO at a final concentration of 0.1%.
For Na^+ current (I Na+) recordings, the external solution contained (in mM): 130 NaCl, 3 KCl, 30 tetraethylammonium chloride, 1 CaCl2, 0.5 CdCl2, 1 MgCl2, 10 D-glucose and 10 HEPES (pH 7.3 adjusted with NaOH, and mOsm/L = 315). Patch pipettes were filled with an internal solution containing (in mM): 140 CsF, 1.1Cs-EGTA, 10 NaCl, and 15 HEPES (pH 7.3 adjusted with CsOH, and mOsm/L = 300). Peak Na^+ current was acquired by applying 150 ms voltage steps from – 70 to +60 mV in 5-mV increments from a holding potential of – 60 mV to obtain the current–voltage (I–V) relation.
Normalization of currents to each cell’s capacitance (pF) was performed to allow for collection of current density data. For I–V curves, functions were fitted to data using a nonlinear least-squares analysis. I–V curves were fitted using double Boltzmann functions: f=a+g1/(1+exp((x−V1/21)/k1))+g2/(1+exp(−(x−V1/22)/k2)) where x is the membrane potential, V 1/2 is the midpoint potential and k is the corresponding slope factor for single Boltzmann functions. Double Boltzmann fits were used to describe the shape of the curve, not to imply the existence of separate channel populations. Numbers 1 and 2 simply indicate first and second midpoints; a along with g are fitting parameters.
Activation curves were obtained from the I–V curves by dividing the peak current at each depolarizing step by the driving force according to the equation: G = I/(V mem – E rev), where I is the peak current, V mem is the membrane potential and E rev is the reversal potential. The conductance (G) was normalized against the maximum conductance (G max). Steady-state inactivation (SSI) curves were obtained by applying an H-infinity protocol that consisted of 1-s conditioning prepulses from −120 to +10 mV in 10-mV increments followed by a 200 ms test pulse to +10 mV. Inactivation curves were obtained by dividing the peak current recorded at the test pulse by the maximum current (I max). Activation and SSI curves were fitted with the Boltzmann equation.

[5] = target: T1, NRP1-a1,b1 (Homo sapiens, UniProt O14786); assay: bt-VEGFA cell-free competition binding assay (plate-based)
T1 sequence (O14786 273-427 limits assumed): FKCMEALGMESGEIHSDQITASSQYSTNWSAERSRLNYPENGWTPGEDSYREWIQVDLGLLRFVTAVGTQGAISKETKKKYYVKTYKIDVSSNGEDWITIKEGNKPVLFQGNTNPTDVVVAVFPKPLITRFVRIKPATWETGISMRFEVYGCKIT
Description: The assay was conducted as previously described. Briefly, the 96-well plates were precoated with NRP1 protein at 3 μg/mL overnight at 4 °C. On the following day, the plates were treated with blocking buffer (PBS containing 1%1% BSA) and washed three times with wash buffer (PBS containing 0.1% Tween-20). The various concentrations of compounds diluted in PBS containing 1%1% DMSO were added, followed by addition of 0.25 nM of bt-VEGFA165. After 2 h of incubation at room temperature, the plates were washed three times with wash buffer. The bound bt-VEGFA165 to NRP1 was detected by streptavidin– horseradish peroxidase conjugates and the enzyme substrate, and measured using a Tecan Genius plate reader at 450 nm with a reference wavelength at 595 nm. Nonspecific binding was determined in the absence of NRP1-coated wells of the plates.

SMILES: N=C(N)NCCC[C@H](NC(=O)c1sccc1NS(=O)(=O)c1cc(NCc2csc(N3CCNCC3)n2)cc2cccnc12)C(=O)O.O=CO [Compound 12h, (2S)-5-Guanidino-2-[[3-[[6-[(2-piperazin-1-ylthiazol-4-yl)-methylamino]-8-quinolyl]-sulfonylamino]-thiophene-2-carbonyl]-amino]-pentanoic Acid, Formic Acid]
- VEGFA-induced stimulus-aversion (time in vF-conditioned chamber), Figure S5 ([1]; 10 μM coinjected with VEGFA 10 nM): blocked by 10 μM 12h in males
- effect on VEGFA-induced aversion in CPA-paradigm ([1]; 10 μM, male rats): showed significant reduction in VEGFA-induced aversion
- VEGFA-induced aversion (time in vF-conditioned chamber) ([1]; 30 μM coinjected with VEGFA 10 nM, male and female rats): prevented significant stimulus-aversion from VEGFA in both sexes; also recorded: the aversion was prevented
- CPA-score vs VEGFA/vehicle ([1]; 30 μM, female rats): did not show a statistically significant improvement
- effect on VEGFA-induced dye extravasation ([2]; 30 μM, 15 min preincubation of retinal explants): significantly reduced VEGFA-induced dye extravasation
- effect on vascular permeability, alone ([2]; compound alone, ex vivo mouse retina): had no effect on vascular permeability
- p38 phosphorylation when added alone ([3]; 30 μM alone, 5 min): did not induce p38 phosphorylation
- effect on VEGFA-induced p38 phosphorylation ([3]; 30 μM, 15 min prior to VEGFA165 stimulation): prevented VEGFA-induced p38 phosphorylation
- effect on Na+ currents, alone ([4]; 30 μM alone, 30 min): Neither EG00229 nor 12h alone had any obvious effect
- effect on VEGFA-induced increase in Na+ currents and current density ([4]; 30 μM, then VEGFA165 1 nM 30 min, small-sized DRG neurons): equally reduced; also recorded: prevented the VEGFA-mediated increase in total sodium currents
- V 1/2 activation, total Na+ ([4]; compound 30 μM + VEGFA): –16.420 ± 0.916 (10) ^b mV
- V 1/2 inactivation, total Na+ ([4]; compound 30 μM + VEGFA): –47.632 ± 1.411 (10) mV
- V 1/2 activation, total Na+ ([4]; compound alone, 30 μM): –16.819 ± 0.840 (10) ^b mV
- V 1/2 inactivation, total Na+ ([4]; compound alone, 30 μM): –52.032 ± 2.123 (10) mV
- IC50 ([5]; 0.25 nM bt-VEGFA165, mean ± SEM, at least three independent experiments, read-out: Competition analysis bt-VEGFA, cell-free NRP1-a1,b1 IC50): 320 ± 40 nM
- IC50 ([5]; plate-based assay, Figure 2D, read-out: IC50, competitive inhibition of bt-VEGFA binding to NRP1): 362 nM and < 500 nM

Source: article PMC12624434 (ACS Pharmacology & Translational Science, 2025)
